Experimental data: publication PMC6459586, “Structure-Based Design of MptpB Inhibitors That Reduce Multidrug-Resistant Mycobacterium tuberculosis Survival and Infection Burden in Vivo” (Journal of Medicinal Chemistry, 2018)
“Also recorded” adds a separate entry of the source. Like-named read-outs stand apart in the source and are kept apart here.

Legend:
hPTP1B = target: T1, hPTP1B (Homo sapiens, UniProt P18031); experiment: biochemical; details: read-out: IC50 hPTP1B (Supplementary Table 1)
T1 construct: GST (N, cleaved yes); made in house; host or cells: E. coli
T1 sequence (P18031 whole entry): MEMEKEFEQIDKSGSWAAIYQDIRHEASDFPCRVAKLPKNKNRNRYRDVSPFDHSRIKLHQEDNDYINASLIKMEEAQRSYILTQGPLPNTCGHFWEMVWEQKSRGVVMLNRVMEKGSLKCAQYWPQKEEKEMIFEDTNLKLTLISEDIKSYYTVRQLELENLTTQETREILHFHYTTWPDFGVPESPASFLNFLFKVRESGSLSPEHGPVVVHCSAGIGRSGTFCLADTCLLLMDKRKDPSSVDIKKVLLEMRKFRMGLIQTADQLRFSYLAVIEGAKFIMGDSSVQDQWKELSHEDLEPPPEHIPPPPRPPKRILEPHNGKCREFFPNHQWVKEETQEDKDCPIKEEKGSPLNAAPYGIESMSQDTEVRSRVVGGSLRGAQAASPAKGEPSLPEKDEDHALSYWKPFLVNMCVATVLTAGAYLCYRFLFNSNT

hVHR = target: T2, hVHR (Homo sapiens, UniProt P51452); experiment: biochemical; details: read-out: IC50 hVHR (Supplementary Table 1)
T2 construct: GST (N, cleaved yes); made in house; host or cells: E. coli
T2 sequence (P51452 whole entry): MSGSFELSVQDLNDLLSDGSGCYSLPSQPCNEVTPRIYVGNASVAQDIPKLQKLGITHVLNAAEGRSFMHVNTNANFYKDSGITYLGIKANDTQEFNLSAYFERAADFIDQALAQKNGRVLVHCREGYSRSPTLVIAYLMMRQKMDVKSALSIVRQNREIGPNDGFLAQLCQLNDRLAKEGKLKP

[1] = test system: BCG in mouse macrophages (J774); assay type: cell-based, Mycobacterium bovis Bacille Calmette-Guerin
[2] = test system: M. tuberculosis H37Rv in human macrophages (THP1); assay type: cell-based
[3] = test system: MDR strain (Beijing-W) in human macrophages (THP1); assay type: cell-based, M. tuberculosis
BCG = assay type: cell-based, Mycobacterium bovis Bacille Calmette-Guerin
[4] = test system: PI3P on M. tuberculosis phagosomes (RAW264.7 macrophages); assay type: cell-based
[5] = Pharmacokinetic evaluation in guinea pigs; assay type: in vivo; details: male, Durkin Hartley, guinea pig, in vivo
Procedure: Guinea pig males (Durkin Hartley) were used to evaluate the pharmacokinetics and tissue distribution of compounds. The route of administration was either intraperitoneal (ip) or oral (po) with dosage varying from 3.5 to 8 mg kg^–1 (op) and 2.5–4 mg kg^–1 (ip). In each case 4 samples were collected per time point at 0.1, 0.5, 2, 4, and 8 h post dose for ip and 0.25, 0.5, 2, 4, and 8 h post dose for po. Compounds were prepared in 10% DMSO, 5% Cremaphor, and 85% physiological saline for IP administration or 0.5% (v/v) Tween 80, 99.5% (v/v) 0.5% methylcellulose for oral administration. Tissue samples (n = 4) from lung, liver, and kidney were collected at the end of the study and snap frozen prior to bioanalysis.

M. tuberculosis H37Rv = experiment: Acute guinea pig model of TB infection; assay type: in vivo; details: 28 days of treatment, oral daily, 13 100 mg/kg, RIF 50 mg/kg
M. tuberculosis = assay type: in vivo, guinea pig
physchem = assay type: physicochemical; details: pH 7.4
Procedure: Experimental Methods (ADME determinations).
ADME determinations for Compound 13 (data kindly supplied by LifeArc).
LogD measurements were carried out using the shake flask method. Compound was diluted from a 10 mM DMSO stock solution into an eppendorf containing equal amounts of octanol and phosphate buffered saline (PBS) to give a final concentration of 100 µM. The tubes were shaken for 12 hours, centrifuged at 10000 rpm for 10 minutes and samples taken from the octanol and PBS layers. The samples from both layers were analysed in triplicate by LC-MS/MS (Aglient Technologies G6410 series, triple quadrupole with MM-ESI ion source) using optimised multiple reaction monitoring (MRM) scans and a standard column gradient on an Acquity UPLC BEH C8 1.7 µm column, running acetonitrile and water with 0.05% acetic acid as the mobile phase. The ratios of areas of the peaks were used to calculate the Log D in accordance with the equation:
Log D = Log10(Area-TL/Area BL)
PBS pH7.4 in a filtration plate at a target concentration of 200 µM giving a final solution composition of 98:2 PBS:DMSO. […] The UV absorbance for these solutions was read across 230-400 nM at 1 nM intervals using a T ECAN Safire II plate reader and a suitable UV wavelength chosen around the UV maximum of each compound. […]

[6] = guinea pig, 50 or 100 mg/kg orally once daily for 7 days
[7] = chronic model, 28 days of treatment from day 28, oral daily, 13 100 mg/kg, RIF 50 mg/kg
[8] = chronic model, 28 days of treatment from day 28, oral daily, 13 100 mg/kg, RIF 50 mg/kg, listed as Cpd 13

With `Cc1onc(C(=O)O)c1-c1cccc(-c2cc(Cl)c(O)c(Cl)c2)c1` [Compound 13, 4-(3′,5′-Dichloro-4′-hydroxy-3-biphenyl)-5-methylisoxazole-3-carboxylic Acid] the IC50 (hPTP1B) was over 100 µM, the IC50 (hVHR) was over 100 µM and the “reduction in intracellular mycobacterial (BCG) burden” value [1] was “up to 84%”. The “reduction of intracellular mycobacterial burden, H37Rv” value [2] was “up to 63%”, the “reduction of intracellular mycobacterial burden, MDR strain (Beijing-W)” value [3] was “up to 74%” and the “effect on extracellular growth of BCG” value (BCG) was “does not affect extracellular bacterial growth; also recorded: not affected”. The “duration of the peak of PI3P on phagosomes” value [4] was “up to 12 min”, the half-life ([5]; ip, 4 mg/kg, IP, dose mg/kg: 13 4, 5 2.5, 8 1.25, 9 2.5) was 1.4 h and the half-life ([5]; po, 8 mg/kg, oral, dose mg/kg: 13 8, 5 5, 8 3.5, 9 5) was 5 h. The “Lungs infection burden, average” value (M. tuberculosis H37Rv) was 5.9 log CFU, the “Lungs log reduction relative to vehicle” value (M. tuberculosis H37Rv) was 0.9 log and the “Spleen infection burden, average” value (M. tuberculosis H37Rv) was 5.6 log CFU. The “Spleen log reduction relative to vehicle” value (M. tuberculosis H37Rv) was 0 log, the “Lungs infection burden, average” value (M. tuberculosis; [7]) was 4.7 log CFU and the “Lungs log reduction relative to vehicle” value (M. tuberculosis; [7]) was “at least 1 log”. The “Spleen infection burden, average” value (M. tuberculosis; [7]) was 4.2 log CFU, the “Spleen log reduction relative to vehicle” value (M. tuberculosis; [7]) was “at least 1 log” and the “Lungs log reduction relative to vehicle” value (M. tuberculosis; [8]) was 1.0 log. For the same compound, the “Spleen log reduction relative to vehicle” value (M. tuberculosis; [8]) was 1.0 log, the “Lungs weight % change relative to Vehicle” value (M. tuberculosis; guinea pig, in vivo) was -19% and the “Lungs weight, average” value (M. tuberculosis; guinea pig, in vivo) was 4.4 g. The “Spleen weight % change relative to Vehicle” value (M. tuberculosis; guinea pig, in vivo) was -19%, the “Spleen weight, average” value (M. tuberculosis; guinea pig, in vivo) was 2.1 g and the “histopathology of lungs and spleens” value (M. tuberculosis; guinea pig, in vivo, 100 mg/kg) was “improvement in the pathology”. The logD (physchem) was 4, the “adverse drug effects (tolerability)” value [6] was “no adverse drug effects” and the “weight increases during the tolerability trial” value [6] was over 5%.
